Experimental data taken from PMC4822253, “Inhibition of BMP and of TGFβ receptors downregulates expression of XIAP and TAK1 leading to lung cancer cell death” (Molecular Cancer, 2016).

How the values were obtained:
H1299 Id1-luc cells = assay: Id1-promoter luciferase reporter assay; format: cell-based
Method: H1299 cells were stably transfected with the Id1-promoter luciferase reporter. Treated cells were lysed with 1X luciferase lysis buffer (Promega). Samples were added to luciferase assay substrate (Promega) and luminsescence measured by the TD-20/20 Luminometer (Turner Designs/Turner BioSystems, Sunnyvale, CA). Control samples included luciferase assay substrate alone and luciferase assay substrate plus 1X reporter lysis buffer.

H1299 cells [1] = assay: Western blot analysis of cells in culture; format: cell-based
Method: Total cellular protein was prepared using RIPA buffer containing a protease inhibitor cocktail and protein concentration was measured using the BCA assay as described. In brief, protein was analyzed by SDS-PAGE, transferred to nitrocellulose (Schleicher and Schuell, Keene, NH). After blocking, the blots were incubated overnight at 4 °C with the appropriate primary antibody in Tris-buffered saline with 1 % Tween (TBST) and 5 % BSA. Secondary antibodies were applied for 1 h at room temperature. Specific proteins were detected using the enhanced chemiluminescence system (Amersham, Arlington Heights, IL). The primary antibodies that were used were rabbit monoclonal anti-pSmad 1/5, rabbit monoclonal anti-pSmad2, rabbit monoclonal anti-Smad2, rabbit monoclonal anti-pTAK1, rabbit monoclonal XIAP, rabbit anti-monoclonal p-p65, rabbit monoclonal anti-activated caspase-3, rabbit polyclonal anti-BMPRII, and rabbit monoclonal anti-EGR-1 (Cell signaling Technology, Danvers MA), Rabbit monoclonal anti-TAK1 (Invitrogen, Grand Island NY), rabbit anti-actin, an affinity isolated antigen specific antibody (Sigma, Saint Louis, MO), rabbit monoclonal anti-Id1 and rabbit monoclonal anti-Id3 (Calbioreagents, San Mateo, CA), rabbit polyclonal anti-GAPDH (Sigma, St. Louis, MO) and rabbit polyclonal pMEK-1/2 (Cell Signaling, Danvers MA).

H1299 cells [2] = assay: Cell death assay (ethidium bromide uptake); format: cell-based; conditions: H1299 cells; after 3 days
Method: Cells were plated in 6 well plates with 10^6 cells per well. Three days following treatment with inhibitor(s) and/or transfection the adherent and floating cells were harvested and incubated with 0.1 mg/ml of ethidium bromide. Cells that die by necrosis or apoptosis lose membrane integrity and take up ethidium bromide. Immediately after staining approximately 100 cells were counted and the percentage of cells that took up ethidium bromide was determined.

Alk2/ACVRR1 = molecular target: T1, Alk2/ACVRR1 (Homo sapiens, UniProt Q04771); design: purchased Reaction Biology Corporation (Malvern, PA); conditions: reported literature; read-out: IC50 Alk2/ACVRR1; cited from earlier work
T1 sequence (Q04771 21-509): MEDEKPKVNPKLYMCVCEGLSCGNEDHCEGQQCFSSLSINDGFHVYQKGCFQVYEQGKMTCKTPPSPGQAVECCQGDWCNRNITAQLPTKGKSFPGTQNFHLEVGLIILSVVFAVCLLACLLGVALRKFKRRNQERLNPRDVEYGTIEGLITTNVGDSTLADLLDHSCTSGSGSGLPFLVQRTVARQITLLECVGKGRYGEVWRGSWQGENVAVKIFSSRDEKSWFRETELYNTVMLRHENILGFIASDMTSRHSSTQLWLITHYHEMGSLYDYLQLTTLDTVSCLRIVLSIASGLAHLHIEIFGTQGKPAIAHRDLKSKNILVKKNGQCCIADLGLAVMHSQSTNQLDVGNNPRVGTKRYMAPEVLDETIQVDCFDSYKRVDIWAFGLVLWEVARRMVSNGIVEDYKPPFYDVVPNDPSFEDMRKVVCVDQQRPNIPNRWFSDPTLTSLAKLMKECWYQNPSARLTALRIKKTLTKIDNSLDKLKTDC

Alk3/BMPR1A = Alk3/BMPR1A (Homo sapiens, UniProt P36894); design: purchased Reaction Biology Corporation (Malvern, PA); method as in PMID 23639540; conditions: reported literature; cited from earlier work
Alk5/TGFbetaR1 = molecular target: T2, Alk5/TGFbetaR1 (Homo sapiens, UniProt P36897); conditions: cited from earlier work
T2 construct: purchased Reaction Biology Corporation (Malvern, PA)
T2 sequence (P36897 34-503): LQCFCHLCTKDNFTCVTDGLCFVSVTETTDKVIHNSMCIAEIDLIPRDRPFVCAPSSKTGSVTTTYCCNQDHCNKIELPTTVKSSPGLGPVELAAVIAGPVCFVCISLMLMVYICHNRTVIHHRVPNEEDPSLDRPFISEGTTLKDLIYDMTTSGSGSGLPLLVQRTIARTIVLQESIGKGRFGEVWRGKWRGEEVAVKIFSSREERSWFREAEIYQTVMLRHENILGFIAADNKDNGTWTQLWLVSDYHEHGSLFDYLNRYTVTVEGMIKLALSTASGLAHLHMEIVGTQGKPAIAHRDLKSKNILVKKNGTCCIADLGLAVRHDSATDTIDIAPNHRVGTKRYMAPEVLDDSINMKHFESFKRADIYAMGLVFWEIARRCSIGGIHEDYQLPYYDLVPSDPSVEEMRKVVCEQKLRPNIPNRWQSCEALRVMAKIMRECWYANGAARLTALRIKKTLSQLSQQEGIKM

BMPRII = molecular target: T3, BMPRII (Homo sapiens, UniProt Q13873); design: method as in PMID 23639540; conditions: reported literature (Table 1); cited from earlier work
T3 construct: purchased Reaction Biology Corporation (Malvern, PA)
T3 sequence (Q13873 27-1038): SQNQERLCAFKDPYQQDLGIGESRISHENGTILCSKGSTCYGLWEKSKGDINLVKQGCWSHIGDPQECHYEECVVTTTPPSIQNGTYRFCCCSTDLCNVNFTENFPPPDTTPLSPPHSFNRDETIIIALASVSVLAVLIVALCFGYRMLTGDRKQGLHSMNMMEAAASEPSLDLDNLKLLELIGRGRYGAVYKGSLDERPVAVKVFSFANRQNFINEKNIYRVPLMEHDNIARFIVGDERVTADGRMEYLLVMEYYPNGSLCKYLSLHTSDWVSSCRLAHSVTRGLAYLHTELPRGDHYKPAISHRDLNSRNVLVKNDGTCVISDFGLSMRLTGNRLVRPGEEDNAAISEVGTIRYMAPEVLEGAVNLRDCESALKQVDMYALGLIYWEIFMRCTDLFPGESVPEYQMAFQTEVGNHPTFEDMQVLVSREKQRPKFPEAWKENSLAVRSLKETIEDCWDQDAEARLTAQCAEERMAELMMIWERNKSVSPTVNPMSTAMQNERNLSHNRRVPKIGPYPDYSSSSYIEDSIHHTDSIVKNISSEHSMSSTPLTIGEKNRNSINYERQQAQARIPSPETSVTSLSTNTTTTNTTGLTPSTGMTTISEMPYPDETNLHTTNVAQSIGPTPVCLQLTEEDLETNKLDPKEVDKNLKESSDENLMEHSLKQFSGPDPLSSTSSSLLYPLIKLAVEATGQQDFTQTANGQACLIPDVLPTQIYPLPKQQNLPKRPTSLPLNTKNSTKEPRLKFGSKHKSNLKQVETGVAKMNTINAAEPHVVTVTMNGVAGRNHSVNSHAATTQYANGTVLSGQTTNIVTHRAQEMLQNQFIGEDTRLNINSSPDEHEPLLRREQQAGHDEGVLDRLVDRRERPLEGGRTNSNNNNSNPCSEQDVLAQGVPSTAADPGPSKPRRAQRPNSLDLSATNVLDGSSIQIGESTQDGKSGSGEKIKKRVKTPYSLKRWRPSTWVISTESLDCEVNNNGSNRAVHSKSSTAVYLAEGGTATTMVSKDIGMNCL

A549 cells = assay: Cell counts (live cells, trypan blue); format: cell-based; conditions: compound alone, 7 days
Method: (§1) Cells were plated into 6 well plates at 10^5 cells per well and treated with 1 μM DMSO or antagonist for 7 days. The cells were detached with trypsin, stained with trypan blue, and the number of live cells counted using a hemocytometer.

H1299 cells [3] = assay: Cell counts (live cells, trypan blue); format: cell-based; conditions: compound alone, 7 days
Method: as §1

Chain of Alk3/BMPR1A (P36894 24-532): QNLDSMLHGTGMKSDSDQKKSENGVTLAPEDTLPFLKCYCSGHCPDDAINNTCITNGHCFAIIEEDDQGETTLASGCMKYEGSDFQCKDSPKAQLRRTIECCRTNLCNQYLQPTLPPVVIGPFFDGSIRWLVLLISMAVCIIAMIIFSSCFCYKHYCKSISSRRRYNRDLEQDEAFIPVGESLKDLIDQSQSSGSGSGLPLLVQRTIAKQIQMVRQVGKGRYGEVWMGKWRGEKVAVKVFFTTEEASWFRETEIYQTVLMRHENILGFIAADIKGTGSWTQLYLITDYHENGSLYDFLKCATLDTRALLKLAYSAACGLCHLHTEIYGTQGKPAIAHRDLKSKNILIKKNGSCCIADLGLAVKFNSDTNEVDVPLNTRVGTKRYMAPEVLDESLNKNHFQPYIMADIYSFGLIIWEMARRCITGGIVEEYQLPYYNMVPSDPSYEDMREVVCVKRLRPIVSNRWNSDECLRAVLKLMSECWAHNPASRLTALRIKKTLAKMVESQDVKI

COc1cc(O)c2c(c1)/C=C/C[C@H](O)[C@H](O)C(=O)/C=C\C[C@H](C)OC2=O [5Z, 5Z-7-oxozeaenol]
Id1 promoter activity (H1299 Id1-luc cells; 2 μM, after 24 h): suppressed
Id1 promoter activity (H1299 Id1-luc cells; after 48 h): no longer suppressed
expression of pSmad 1/5, Id1, and pTAK1 (H1299 cells [1]; H1299 cells, after 24 h): dose-related decrease
expression of Id1, pSmad 1/5, and pTAK1 (H1299 cells [1]; H1299 cells, after 48 h): increasing

CC(C)Oc1ccc(-c2cnc3c(-c4ccnc5ccccc45)cnn3c2)cc1 [DMH1]
cell death (H1299 cells [2]): little cell death
IC50 (Alk2/ACVRR1): 108 nM
IC50 (Alk3/BMPR1A): 5 nM
activity for TGFβ receptors (Alk5/TGFbetaR1): no activity
inhibition of BMPRII (BMPRII): does not occur
expression of Smad2 (H1299 cells [1]; H1299 cells, 3 days): did not show significant regulation
expression of XIAP (H1299 cells [1]; H1299 cells, after 3 days (cell line not stated for DMH1 and LDN)): did not downregulate
activation of caspase-3 (H1299 cells [1]; H1299 cells, after 3 days, alone or in combination with SB): did not activate
activation of Smad2 and TAK1 (H1299 cells [1]; in vitro 48 h, cell line not stated in legend): activation

O=C(NOC[C@H](O)CO)c1ccc(F)c(F)c1Nc1ccc(I)cc1F [PD0325901]
promoter activity of Id1 (Id-1 luciferase reporter) (H1299 Id1-luc cells; 48 h): did not regulate

Cc1cccc(-c2[nH]c(C(C)(C)C)nc2-c2ccc3c(c2)OCO3)n1 [SB]
Id1 promoter activity (H1299 Id1-luc cells; compound alone): increase
growth (cell counts) (A549 cells): growth suppression
growth (cell counts) (H1299 cells [3]): little effect
expression of Id1 (H1299 cells [1]; H1299 cells, compound alone, increasing doses): dose-related increase
